From patent US20070027175A1, “Antineoplastic activities of ellipticine and its derivatives” (priority 2005, published 2007)

Legend:
[1] = system: myeloma cell lines chronically exposed to Velcade; test: Myeloma cell lines with acquired Velcade tolerance; type: cell-based
U266 cells [2] = type: cell-based, human; conditions: for disruption of mitochondria (MitoTracker Red CMXRos): 6 hours, EPED3 2 mM, Velcade 0.5 mM
Excerpt: FIGS. 15A-15C show fluorescent images of EPED3 endoplasmic distribution and induction of apoptosis, which was also detected by Western Blot. […] For analysis by fluorescence microscopy, nuclei were stained with DAPI (blue), mitochondria with MitoTracker Red CMXRos (red), and cytochrome c with FITC-conjugated secondary antibodies (green); EPED3 is excited by ultraviolet light (wavelength<500 nm) and was visualized as gold.
The appearance of large cytoplasmic vacuoles (arrows) and diminished mitochondria in cells treated with EPED3 indicate ongoing apoptosis. […] Cytochrome c disassociation with mitochondria also indicates initiation of the intrinsic apoptotic pathway. […] Protein extracts ([…]) were analyzed by Western blotting, using goat anti-human Caspase-3, -8, and -9 polyclonal antibodies. […] In contrast, both EPED3 and Velcade treatments initiated the intrinsic pathway, which releases cytochrome c to induce rapid cleavage of Caspase-9 into its activated form. The consequent Caspase-3 activation indicates activity of the intracellular proteolytic cascade. Abbreviations: C=Medium control, E=EPED3, V=Velcade.
Myeloma cells were co-cultured with human fetal bone mesenchymal cells in the TC inserts. The cells were treated with individual antimyeloma agents at desired concentrations. An aliquot containing 10^6 cells was transferred to 24-well plate and mixed with MitoTracker Red CMXRos (Invitrogen) at 50 nM final concentration. After a 15-minute incubation, cells were collected and washed with PBS and resuspended at 5×10^5 cells/ml for slide adhesion by the Cytospinning method. […]
Autofluorescence of EPED3 was used to visually examine its effects on myeloma cells. […] Cells that ingested EPED3 were, therefore, discernible by the characteristic golden light emitted under fluorescence microscopy. […]
To further investigate effects of EPED3 on mitochondrial integrity and cytochrome c, treated U266 cells were immunohistochemically analyzed.

U266 cells [3] = test: MTT dose response to anti-myeloma agents, U266; type: cell-based, human; conditions: 24 and 48 hours
Procedure: FIGS. 12A-12B show dose response of myeloma cells to common anti-myeloma agents used in clinics. U266 was one of 4 myeloma cell lines exposed to a panel of anti-myeloma agents in 2-fold titration ([…]). MTT assays were performed to assess cell proliferation inhibition for 24 hours (FIG. 12A) and 48 hours (FIG. 12B). […] Error bars indicate standard deviation.
Myeloma cells were suspended in fresh medium at […] and seeded into 96-well plates in 50-μl aliquots (10,000 cells/well). After treating cells in each well with the appropriate compound (50-μl aliquots of 2× stock solution) and medium control, the methylthiazolyldiphenyl-tetrazolium bromide (MTT) assay kit (Promega, Madison, Wis.) was used to determine cell proliferation, according to manufacturer's instructions. Briefly, dye solution was added to each well (15 μl/well) and incubated for 4 hours at 37° C. and 5% CO2; 100 μl of the solubilization solution/stop mix was then added. The plates were read at 570 nm in a plate reader, and the A570 nm values were corrected by A650 nm. All experiments were conducted in triplicate.
In vitro comparison of EPED3 to ellipticine and four anti-myeloma agents commonly used in clinical treatment regimens was carried out with four myeloma cell lines (JJN3, L363, OCI-MY5, and U266). EPED3, ellipticine, Dox, dexamethasome, VP-16-213, and Velcade were applied in a two-fold dilution series ranging from 0.1 to 6.4 μM. Cell proliferation was assessed using MTT assays 24 and 48 hours after initiating treatments.

U266 cells [4] = test: Flow cytometry cell cycle arrest (DNA-Prep); type: cell-based, human; conditions: 12 hours; EPED3 2 μM, Velcade 0.5 μM
Procedure: FIGS. 14A-14L show flowcytometry analyses of cell viability and cell cycle arrest under EPED3 and Velcade treatments. U266 cells were co-cultured without contact with human fetal bone mesenchymal cells. Cells were untreated (Control; FIGS. 14A, 14D, 14G, 14J) or exposed to […] (FIGS. 14B, 14E, 14H, 14K) or […] (FIGS. 14C, 14F, 14I, 14L) for 12 hours and then harvested. Pan-caspase inhibitor Z-VAD-FMK ([…]) was also added to co-cultures (FIGS. 14D-14F and FIGS. 14J-14L) to block caspase-dependent apoptosis and then analyzed for cell cycling arrest. Percent cells in G0+G1 and G2+M phases were measured by the peaks of DNA helix and are gated with each graph (FIGS. 14A-14F). Percent cells with fragmented DNA are indicated as c % in each graph. Cells were also analyzed for apoptotic status (FIGS. 14G-14L) using Coulter Annexin-V FITC/7-AAD kit. Untreated cells (Control; FIGS. 14G and 14J) were maintained at high viability (90%). Early apoptotic cells were gated at G4, and necrotic cells were gated at G2; percent cells in each population are indicated with each graph. The arrows indicate percent viable cells ingested EPED3, whose fluorescent property was captured at channel FL4 (FIGS. 14H, 14K).
Cell cycle arrest was measured using DNA-Prep Coulter Reagents kit (Beckman Coulter, Inc., Miami, Fla.). Myeloma cells were harvested from co-culture inserts and washed in phosphate buffered saline (PBS); 5×10^5 cells were stained according to the manufacturer's instructions. Samples were analyzed using EPICS XL-MCL flowcytometer equipped with EXPO32 ADC software (Beckman Coulter, Inc.).
To investigate the effects of EPED3 on apoptosis and cell cycle arrest of myeloma cells, U266 cells were exposed to EPED3 (2 μM) or Velcade (0.5 μM) in co-culture without direct contact with fetal human bone mesenchymal cells. Twelve hours after treatment, cells were harvested for using flow cytometry to detect ongoing apoptosis and cell cycle arrest.
The cell cycle arrest analysis was simultaneously performed to examine DNA helix in U266 cells at 12 hours. […] Furthermore, 7.2% of the EPED3-treated population was in G2+M phase as opposed to 25.4% of the control and 18.9% of Velcade-treated populations in the G2+M phase (FIG. 14A-14C).

Row | Compound | cross-tolerance of Velcade-tolerant cells ([1]; data not shown) | cell uptake and distribution (autofluorescence) (U266 cells [2]) | disruption of mitochondria (MitoTracker Red CMXRos) (U266 cells [2]) | concentration with better efficacy on reduction of cell metabolic activity (U266 cells [3]; U266) [µM] | concentration at which cell proliferation stopped (U266 cells [3]; U266, MTT) [µM] | population in G0+G1 phase (U266 cells [4]) [%] | population in G2+M phase (U266 cells [4]) [%] | tolerance level after chronic exposure ([1]; in vitro chronic exposure to Velcade, several myeloma cell lines) [nM] | concentration of efficient killing of U266 cells (U266 cells [3]; without co-culture, MTT)
1 | Cc1c2ccncc2c(C)c2c1[nH]c1ccc(OCCN(C)C)cc12 [NSC 338258, ellipticine, 9-dimethyl amino-ethoxy-] | such Velcade-tolerance did not apply | instantly permeated the cells and distributed throughout the cytosol | Disruption of mitochondria | ≥ 0.4 | 0.2 | 67.5 | 7.2 | – | –
2 | CC(C)C[C@H](NC(=O)[C@H](Cc1ccccc1)NC(=O)c1cnccn1)B(O)O [Velcade, bortezomib, reference compound] | – | – | mitochondrial disruption was not seen | – | – | 59.8 | 18.9 | > 5 | less than 0.1 μM
